From patent US9469804B2, “Foaming composition with wettability modifying and corrosion inhibitory properties for high temperature and ultra-high salinity” (INSTITUTO MEXICANO DEL PETROLEO, priority 2012, dated 2016) come the findings set out here.

A short description of data set [1]: Phase stability evaluation in brines with ultra-high salinity (turbidity). The format is physicochemical. Conditions: 0.2% by weight, room temperature, pass limit 30 NTU. As for the experimental part:
A phase stability study was carried out for the supramolecular complexes object of the present invention, described in Examples 19, 20 and 21 and whose basic structural formula is indicated in (36).
All the products were assessed at concentration of 0.2% by weight, dissolved in different waters with high salinity and concentrations of divalent ions, through the measurement of turbidity in NTU (Nephelometric Turbidity Units). This value indicates how turbid or clear a solution/chemical product is and the higher the value, the more turbid the solution is.
The measurement is based on applying the nephelometric technique by using a photometer. The standard method is based on the comparison of the amount of light dispersed by the colloidal particles present in a sample of water with the intensity of the light emerging across the same sample.
It is worth mentioning that in order to pass this test, a value 30 NTU should not be exceeded.

Data set [2] can be described thus: Foaming test at atmospheric pressure (foam stability). The format is physicochemical. The settings on record: brine 1, 70°C, 0.2% by weight, nitrogen.

Take “coco-amido-propyl-hydroxysultaine [Coco amido-propyl hydroxysultaine]”: the TURBIDITY stood at 1.09 NTU in data set [1] (BRINE 1 (salinity as NaCl 32803.9, hardness 6420 mg/L)); 1.68 NTU in data set [1] (BRINE 2 (salinity as NaCl 152974.9, hardness 35200 mg/L)); 3.9 NTU in data set [1] (BRINE 3 (salinity as NaCl 253859.1, hardness 87700 mg/L)). The “time in which the minimum foam stability of 30% is reached” value in data set [2] came out at 60 min.
